Laboratory results: patent US10556865B2, “Synergistic herbicidal composition containing certain pyridine or pyrimidine carboxylic acids and certain cereal and rice herbicides” (Dow AgroSciences, LLC, priority 2007, dated 2020)
Where “and” joins values, the source holds several entries; their conditions need not be identical. Identical values can stand only once. Like-named read-outs stand apart in the source and are kept apart here.

Key:
Experiment in all cases: Postemergence herbicidal activity of mixtures in cereal crops (greenhouse, visual injury)
Format in all cases: in vivo
[1] = tested on: green foxtail (Setaria viridis L; SETVI)
Outline: (§1)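 Visual injury, 0 = none to 100 = complete kill, rated 20–22 d after treatment versus solvent-sprayed controls. Applications were track-sprayer postemergence at 187 L/ha, at the 2nd–3rd true leaf stage, of Compound A or B esters/salts alone and in two- and three-way mixes with a second cereal herbicide. Expected mixture activity via Colby.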

[2] = tested on: lamb's-quarters (Chenopodium album L; CHEAL)
Outline: as §1

[3] = tested on: Russian thistle (Salsola iberica L; SASKR)
Outline: as §1

[4] = tested on: black mustard (Brassica nigra L; BRSNI); conditions: Brassica, post-emergence, read-out: BRSNI Ob
Outline: as §1

[5] = tested on: cut-leaf geranium (Geranium dissectum L; GERDI)
Outline: as §1

[6] = tested on: ivy-leaved speedwell (Veronica hederifolia L; VERHE)
Outline: as §1

[7] = tested on: rigid ryegrass (Lolium rigidum L; LOLRI)
Outline: as §1

[8] = tested on: wild buckwheat (Polygonum convolvulus L; POLCO)
Outline: as §1

## COC(=O)c1nc(-c2ccc(Cl)c(OC)c2F)cc(N)c1Cl [Compound A Methyl, 4-amino-3-chloro-6-(4-chloro-2-fluoro-3-methoxyphenyl)pyridine-2-carboxylic acid methyl ester]
[1]; 17.5 g/ha, Table 1
  SETVI Ob: 70%
[1]; 35 g/ha, Table 1
  SETVI Ob: 75%
[1]; 35 g/ha, Table 7
  SETVI Ob: 77%
[1]; 70 g/ha, Table 1
  SETVI Ob: 80%
[1]; 70 g/ha, Table 7
  SETVI Ob: 82%
[1]; 140 g/ha, Table 7
  SETVI Ob: 91%
[2]; 17.5 g/ha
  CHEAL Ob: 90%
[2]; 35 g/ha
  CHEAL Ob: 90%
[2]; 70 g/ha
  CHEAL Ob: 95%

## COc1c(Cl)ccc(-c2cc(N)c(Cl)c(C(=O)O)n2)c1F [Compound A TEA, 4-amino-3-chloro-6-(4-chloro-2-fluoro-3-methoxyphenyl)pyridine-2-carboxylic acid]
[3]; 8.75 g/ha alone
  SASKR Ob: 80%
[3]; 17.5 g/ha alone
  SASKR Ob: 84%
[3]; 35 g/ha alone
  SASKR Ob: 87%
[3]; 70 g/ha alone
  SASKR Ob: 93%
[4]; 8.75 g/ha alone
  pest or weed control at 8.75 g/ha: 70%
[4]; 8.75 g/ha
  pest or weed control at 8.75 g/ha: 70%
[4]; 17.5 g/ha alone
  pest or weed control at 17.5 g/ha: 91%
[4]; 17.5 g/ha
  pest or weed control at 17.5 g/ha: 91%
[4]; 35 g/ha alone
  pest or weed control at 35 g/ha: 98%
[4]; 35 g/ha
  pest or weed control at 35 g/ha: 98%
[4]; 70 g/ha alone
  pest or weed control at 70 g/ha: 99%
[4]; 70 g/ha
  pest or weed control at 70 g/ha: 99%
[5]; 8.75 g/ha
  GERDI Ob: 50%
[5]; 8.75 g/ha alone
  GERDI Ob: 50% and 38%
[5]; 17.5 g/ha
  GERDI Ob: 55%
[5]; 17.5 g/ha alone
  GERDI Ob: 55% and 50%
[5]; 35 g/ha
  GERDI Ob: 65%
[5]; 35 g/ha alone
  GERDI Ob: 65% and 80%
[5]; 70 g/ha alone
  GERDI Ob: 78% and 85%
[6]; 8.75 g/ha
  VERHE Ob: 10%
[6]; 17.5 g/ha
  VERHE Ob: 20%
[6]; 35 g/ha
  VERHE Ob: 50%
[6]; 70 g/ha
  VERHE Ob: 75%
[7]; 35 g/ha, Table 12
  LOLRI Ob: 0%
[7]; 35 g/ha, Table 13
  LOLRI: 0%
[7]; 35 g/ha, Table 17
  LOLRI Ob: 0%
[7]; 35 g/ha, Table 19
  LOLRI: 0%
[7]; 70 g/ha, Table 12
  LOLRI Ob: 0%
[7]; 70 g/ha, Table 13
  LOLRI: 0%
[7]; 70 g/ha, Table 17
  LOLRI Ob: 0%
[7]; 70 g/ha, Table 19
  LOLRI: 0%
[7]; 140 g/ha, Table 12
  LOLRI Ob: 10%
[7]; 140 g/ha, Table 13
  LOLRI: 10%
[7]; 140 g/ha, Table 17
  LOLRI Ob: 10%
[7]; 140 g/ha, Table 19
  LOLRI: 10%
[8]; 8.75 g/ha
  POLCO Ob: 90%
[8]; 8.75 g/ha alone
  POLCO Ob: 90% and 76%
[8]; 17.5 g/ha
  POLCO Ob: 93%
[8]; 17.5 g/ha alone
  POLCO Ob: 93% and 88%
[8]; 35 g/ha
  POLCO Ob: 98%
[8]; 35 g/ha alone
  POLCO Ob: 98% and 96%
[8]; 70 g/ha
  POLCO Ob: 99%
[8]; 70 g/ha alone
  POLCO Ob: 99%
